Tested on: 313798-341-R-J2-PDC spheroids, viability
Assay: Anticancer human tumor 313798-341-R-J2-PDC patient-derived cervical squamous cell carcinoma cell line growth inhibition [PI3K]
Settings: spheroids with HUVEC and MSC; for viability, T/C: stronger effect = lower value
How it was run: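 Stroma-containing spheroids: tumor line, pooled-donor HUVEC, hMSC. Treatments: targeted agents with PI3K inhibitors. Dosing: clinically relevant, half-log spacing, 10 microM ceiling without known Cmax. Read-out: cell viability.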

[1] = curve of first compound, second compound 0.0316 µM
[2] = curve of first compound, second compound 0.1 µM
[3] = curve of first compound, second compound 0.316 µM
[4] = curve of first compound, second compound 1 µM
[5] = curve of first compound, second compound 3.16 µM
[6] = curve of first compound, second compound 10 µM
[7] = second compound 0.0316 µM, first compound 0.0316 µM
[8] = second compound 0.0316 µM, first compound 0.1 µM
[9] = second compound 0.0316 µM, first compound 0.316 µM
[10] = second compound 0.0316 µM, first compound 1 µM
[11] = second compound 0.0316 µM, first compound 3.16 µM
[12] = second compound 0.0316 µM, first compound 10 µM
[13] = second compound 0.1 µM, first compound 0.0316 µM
[14] = second compound 0.1 µM, first compound 0.1 µM
[15] = second compound 0.1 µM, first compound 0.316 µM
[16] = second compound 0.1 µM, first compound 1 µM
[17] = second compound 0.1 µM, first compound 3.16 µM
[18] = second compound 0.1 µM, first compound 10 µM
[19] = second compound 0.316 µM, first compound 0.0316 µM
[20] = second compound 0.316 µM, first compound 0.1 µM
[21] = second compound 0.316 µM, first compound 0.316 µM
[22] = second compound 0.316 µM, first compound 1 µM
[23] = second compound 0.316 µM, first compound 3.16 µM
[24] = second compound 0.316 µM, first compound 10 µM
[25] = second compound 1 µM, first compound 0.0316 µM
[26] = second compound 1 µM, first compound 0.1 µM
[27] = second compound 1 µM, first compound 0.316 µM
[28] = second compound 1 µM, first compound 1 µM
[29] = second compound 1 µM, first compound 3.16 µM
[30] = second compound 1 µM, first compound 10 µM
[31] = second compound 3.16 µM, first compound 0.0316 µM
[32] = second compound 3.16 µM, first compound 0.1 µM
[33] = second compound 3.16 µM, first compound 0.316 µM
[34] = second compound 3.16 µM, first compound 1 µM
[35] = second compound 3.16 µM, first compound 3.16 µM
[36] = second compound 3.16 µM, first compound 10 µM
[37] = second compound 10 µM, first compound 0.0316 µM
[38] = second compound 10 µM, first compound 0.1 µM
[39] = second compound 10 µM, first compound 0.316 µM
[40] = second compound 10 µM, first compound 1 µM
[41] = second compound 10 µM, first compound 3.16 µM
[42] = second compound 10 µM, first compound 10 µM
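Further: spheroids exposed to compounds for seven days.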
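Wherever viability, T/C is given: 100% = DMSO vehicle control viability.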

## Cn1nccc1Nc1nccc(-c2ccn(C(CO)c3ccc(Cl)c(F)c3)c(=O)c2)n1 (stereo not given) + CC(Nc1ncnc2nc[nH]c12)c1cc2cccc(Cl)c2c(=O)n1-c1ccccc1
[1]
  IC50: > 10 µM
[2]
  IC50: > 10 µM
[3]
  IC50: > 10 µM
[4]
  IC50: > 10 µM
[5]
  IC50: > 10 µM
[6]
  IC50: > 10 µM
[7]
  viability, T/C: 92.4%
[8]
  viability, T/C: 94.5%
[9]
  viability, T/C: 90.1%
[10]
  viability, T/C: 99.1%
[11]
  viability, T/C: 91.3%
[12]
  viability, T/C: 95.1%
[13]
  viability, T/C: 100%
[14]
  viability, T/C: 108%
[15]
  viability, T/C: 97.7%
[16]
  viability, T/C: 104%
[17]
  viability, T/C: 105%
[18]
  viability, T/C: 94.2%
[19]
  viability, T/C: 114%
[20]
  viability, T/C: 95.7%
[21]
  viability, T/C: 90.2%
[22]
  viability, T/C: 95%
[23]
  viability, T/C: 110%
[24]
  viability, T/C: 101%
[25]
  viability, T/C: 102%
[26]
  viability, T/C: 85.4%
[27]
  viability, T/C: 107%
[28]
  viability, T/C: 98.9%
[29]
  viability, T/C: 93.5%
[30]
  viability, T/C: 94.1%
[31]
  viability, T/C: 97.6%
[32]
  viability, T/C: 96%
[33]
  viability, T/C: 94.1%
[34]
  viability, T/C: 87.7%
[35]
  viability, T/C: 89.9%
[36]
  viability, T/C: 90.6%
[37]
  viability, T/C: 98.8%
[38]
  viability, T/C: 75.3%
[39]
  viability, T/C: 77.8%
[40]
  viability, T/C: 78.7%
[41]
  viability, T/C: 85.8%
[42]
  viability, T/C: 73.8%

## Cn1ncc(Cl)c1-c1cc(C(=O)NC(CN)Cc2cccc(F)c2)sc1Cl (stereo not given)
Compound 0.0316 µM
  viability, T/C: 105% [middle of 4 runs]
Compound 0.1 µM
  viability, T/C: 97.5% [middle of 4 runs]
Compound 0.316 µM
  viability, T/C: 79.1% [middle of 4 runs]
Compound 1 µM
  viability, T/C: 49.9% [middle of 4 runs]
Compound 3.16 µM
  viability, T/C: 34.7% [middle of 4 runs]
Compound 10 µM
  viability, T/C: 34.5% [middle of 4 runs]
Curve of compound
  IC50: 996 nM [middle of 4 runs]

## CC1(C)CCC(Nc2ncc(C(F)(F)F)c(-c3c[nH]c4c(P(C)(C)=O)c(C#N)ccc34)n2)CN1 (stereo not given) + Cc1nc(NC(=O)N2CCCC2C(N)=O)sc1-c1ccnc(C(C)(C)C(F)(F)F)c1
[1]
  IC50: > 10 µM
[2]
  IC50: > 10 µM
[3]
  IC50: < 0.0316 µM
[4]
  IC50: < 0.0316 µM
[5]
  IC50: < 0.0316 µM
[6]
  IC50: < 0.0316 µM
[7]
  viability, T/C: 64.5%
[8]
  viability, T/C: 49.2%
[9]
  viability, T/C: 52.4%
[10]
  viability, T/C: 54.4%
[11]
  viability, T/C: 58.8%
[12]
  viability, T/C: 71.9%
[13]
  viability, T/C: 54.9%
[14]
  viability, T/C: 50.8%
[15]
  viability, T/C: 50.3%
[16]
  viability, T/C: 53.1%
[17]
  viability, T/C: 54.1%
[18]
  viability, T/C: 66.6%
[19]
  viability, T/C: 45.7%
[20]
  viability, T/C: 39.6%
[21]
  viability, T/C: 35.5%
[22]
  viability, T/C: 38.7%
[23]
  viability, T/C: 43.8%
[24]
  viability, T/C: 52.3%
[25]
  viability, T/C: 34.7%
[26]
  viability, T/C: 32.2%
[27]
  viability, T/C: 35.5%
[28]
  viability, T/C: 34.2%
[29]
  viability, T/C: 36%
[30]
  viability, T/C: 33.7%
[31]
  viability, T/C: 27.9%
[32]
  viability, T/C: 25%
[33]
  viability, T/C: 23.7%
[34]
  viability, T/C: 23.3%
[35]
  viability, T/C: 26.2%
[36]
  viability, T/C: 10.8%
[37]
  viability, T/C: 16.9%
[38]
  viability, T/C: 18.7%
[39]
  viability, T/C: 16.6%
[40]
  viability, T/C: 17.8%
[41]
  viability, T/C: 17.2%
[42]
  viability, T/C: 1.7%

## COc1c(OCCCN2CCOCC2)ccc2c3n(c(=NC(=O)c4cnc(N)nc4)nc12)CCN3
Compound 0.00316 µM
  viability, T/C: 101% [middle of 7 runs]
Compound 0.01 µM
  viability, T/C: 102% [middle of 7 runs]
Compound 0.0316 µM
  viability, T/C: 84.5% [middle of 7 runs]
Compound 0.1 µM
  viability, T/C: 42.1% [middle of 7 runs]
Compound 0.316 µM
  viability, T/C: 14.9% [middle of 7 runs]
Compound 1 µM
  viability, T/C: 11.9% [middle of 7 runs]
Compound alone, run of 04/25/2023
  IC50: 80.2 nM [middle of 7 runs]

## CNC(=O)c1ccc(N2C(=S)N(c3ccc(C#N)c(C(F)(F)F)c3)C(=O)C2(C)C)cc1F + Cc1nc(NC(=O)N2CCCC2C(N)=O)sc1-c1ccnc(C(C)(C)C(F)(F)F)c1
[1]
  IC50: > 10 µM
[2]
  IC50: > 10 µM
[3]
  IC50: > 10 µM
[4]
  IC50: > 10 µM
[5]
  IC50: > 10 µM
[6]
  IC50: < 0.0316 µM
[7]
  viability, T/C: 97.5%
[8]
  viability, T/C: 104%
[9]
  viability, T/C: 92.3%
[10]
  viability, T/C: 107%
[11]
  viability, T/C: 119%
[12]
  viability, T/C: 88.4%
[13]
  viability, T/C: 116%
[14]
  viability, T/C: 101%
[15]
  viability, T/C: 99.5%
[16]
  viability, T/C: 105%
[17]
  viability, T/C: 111%
[18]
  viability, T/C: 114%
[19]
  viability, T/C: 104%
[20]
  viability, T/C: 104%
[21]
  viability, T/C: 107%
[22]
  viability, T/C: 102%
[23]
  viability, T/C: 117%
[24]
  viability, T/C: 111%
[25]
  viability, T/C: 94.3%
[26]
  viability, T/C: 89.4%
[27]
  viability, T/C: 96.2%
[28]
  viability, T/C: 96%
[29]
  viability, T/C: 90.3%
[30]
  viability, T/C: 90.4%
[31]
  viability, T/C: 67.4%
[32]
  viability, T/C: 64.7%
[33]
  viability, T/C: 65.9%
[34]
  viability, T/C: 64.9%
[35]
  viability, T/C: 61.5%
[36]
  viability, T/C: 54.5%
[37]
  viability, T/C: 36%
[38]
  viability, T/C: 39.3%
[39]
  viability, T/C: 38.5%
[40]
  viability, T/C: 36.8%
[41]
  viability, T/C: 35.5%
[42]
  viability, T/C: 33%

— PubChem BioAssay AID1963982 (Molecular Pharmacology Branch, DTP, NCI, 2024)
